Results reported in paper PMC8632500, “Identification of Conserved and Divergent Strigolactone Receptors in Sugarcane Reveals a Key Residue Crucial for Plant Branching Control” (Frontiers in Plant Science, 2021).
Residue numbers refer to the chain shown, from its start.

What was measured:
Assay in all cases: yeast two-hybrid, hormone-induced D14-MAX2 interaction
Format in all cases: cell-based
[1] = biological target: T1, SsD14a (with SsMAX2) (Saccharum spontaneum, UniProt Z9T3V1O2D3); settings: 5 uM rac-GR24 versus DMSO; 30 °C, 4 days; partner SsMAX2
T1 construct: full-length CDS as GAL4-BD fusion (pGBKT7), SsMAX2 as GAL4-AD fusion (pGADT7), yeast AH109; 7F5W is apo SsD14a lacking residues 1-49; with F-box protein MAX2 homolog (D3)
T1 sequence (Z9T3V1O2D3 1-316): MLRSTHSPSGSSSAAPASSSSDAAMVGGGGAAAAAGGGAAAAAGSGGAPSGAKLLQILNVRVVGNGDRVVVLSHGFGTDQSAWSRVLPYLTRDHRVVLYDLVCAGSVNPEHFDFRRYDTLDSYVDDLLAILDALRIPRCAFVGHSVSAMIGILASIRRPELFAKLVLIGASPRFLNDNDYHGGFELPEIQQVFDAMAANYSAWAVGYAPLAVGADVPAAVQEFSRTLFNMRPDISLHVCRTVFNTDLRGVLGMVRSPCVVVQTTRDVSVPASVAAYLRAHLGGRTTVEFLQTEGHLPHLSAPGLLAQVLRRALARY

[2] = biological target: T2, AtD14 (with SsMAX2) (Arabidopsis thaliana, UniProt Q9SQR3); settings: 5 uM rac-GR24 versus DMSO; 30 °C, 4 days; partner SsMAX2
T2 construct: gene D14; GAL4-BD fusion, with Saccharum spontaneum MAX2 as GAL4-AD fusion, yeast AH109; with F-box protein MAX2 homolog (D3), Saccharum spontaneum
T2 sequence (Q9SQR3 1-267): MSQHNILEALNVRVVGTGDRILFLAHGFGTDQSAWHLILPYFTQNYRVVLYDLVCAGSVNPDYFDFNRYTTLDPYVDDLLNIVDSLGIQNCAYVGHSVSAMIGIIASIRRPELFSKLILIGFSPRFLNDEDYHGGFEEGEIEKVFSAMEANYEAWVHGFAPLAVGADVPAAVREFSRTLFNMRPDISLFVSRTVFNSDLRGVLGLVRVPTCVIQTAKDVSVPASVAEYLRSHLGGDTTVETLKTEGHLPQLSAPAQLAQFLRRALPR

[3] = biological target: T3, OsD14ΔN (with SsMAX2) (Oryza sativa, UniProt Q10QA5, R312P); settings: 5 uM rac-GR24 versus DMSO; 30 °C, 4 days; partner SsMAX2; R312P in full-length count
T3 construct: gene D14; N-terminally truncated (printed OsD14ΔN53; R261/R312 offset implies 51 residues removed), GAL4-BD fusion, with Saccharum spontaneum MAX2 as GAL4-AD fusion, yeast AH109; with F-box protein MAX2 homolog (D3), Saccharum spontaneum
T3 sequence (Q10QA5 54-318 R312P): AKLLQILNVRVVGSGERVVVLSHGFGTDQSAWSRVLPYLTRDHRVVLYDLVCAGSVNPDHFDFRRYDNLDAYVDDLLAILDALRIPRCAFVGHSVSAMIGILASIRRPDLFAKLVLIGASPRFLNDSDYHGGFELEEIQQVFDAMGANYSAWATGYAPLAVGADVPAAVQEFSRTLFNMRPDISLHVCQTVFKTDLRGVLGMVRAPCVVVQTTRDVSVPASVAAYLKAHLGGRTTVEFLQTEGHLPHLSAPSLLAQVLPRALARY

[4] = biological target: T4, SsD14b (with SsMAX2) (Saccharum spontaneum, UniProt Z9BCY6HYO0); settings: 5 uM rac-GR24 versus DMSO; 30 °C, 4 days; partner SsMAX2
T4 construct: full-length CDS as GAL4-BD fusion (pGBKT7), SsMAX2 as GAL4-AD fusion (pGADT7), yeast AH109; with F-box protein MAX2 homolog (D3)
T4 sequence (Z9BCY6HYO0 1-310): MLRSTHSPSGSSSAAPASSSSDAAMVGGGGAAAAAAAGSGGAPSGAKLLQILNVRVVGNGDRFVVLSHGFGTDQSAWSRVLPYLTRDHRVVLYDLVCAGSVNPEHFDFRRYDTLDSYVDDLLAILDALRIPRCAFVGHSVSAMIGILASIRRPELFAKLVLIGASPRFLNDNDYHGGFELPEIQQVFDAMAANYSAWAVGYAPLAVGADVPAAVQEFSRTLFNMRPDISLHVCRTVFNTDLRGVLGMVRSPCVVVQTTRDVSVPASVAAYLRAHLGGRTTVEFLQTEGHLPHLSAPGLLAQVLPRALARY

[5] = biological target: T5, OsD14ΔN (with SsMAX2) (Oryza sativa, UniProt Q10QA5); settings: 5 uM rac-GR24 versus DMSO; 30 °C, 4 days; partner SsMAX2
T5 construct: gene D14; N-terminally truncated (printed OsD14ΔN53; R261/R312 offset implies 51 residues removed), GAL4-BD fusion, with Saccharum spontaneum MAX2 as GAL4-AD fusion, yeast AH109; with F-box protein MAX2 homolog (D3), Saccharum spontaneum
T5 sequence (Q10QA5 54-318): T3 sequence (Q10QA5 54-318 R312P) with P259R

[6] = biological target: T6, AtD14 (with SsMAX2) (Arabidopsis thaliana, UniProt Q9SQR3, R262P); settings: 5 uM rac-GR24 versus DMSO; 30 °C, 4 days; partner SsMAX2
T6 construct: gene D14; GAL4-BD fusion, with Saccharum spontaneum MAX2 as GAL4-AD fusion, yeast AH109; with F-box protein MAX2 homolog (D3), Saccharum spontaneum
T6 sequence (Q9SQR3 1-267 R262P): T2 sequence (Q9SQR3 1-267) with R262P

## CC1=CC(OC=C2C(=O)OC3c4ccccc4CC23)OC1=O (racemic) [rac-GR24]
[1]
  yeast two-hybrid, hormone-induced D14-MAX2 interaction: SL induced both SsD14a and SsD14b to interact with SsMAX2 in yeast
[2]
  yeast two-hybrid, hormone-induced D14-MAX2 interaction: SsMAX2 interacted with AtD14 in an SL-dependent manner
[3]
  yeast two-hybrid, hormone-induced D14-MAX2 interaction: AtD14R262P and OsD14ΔNR261P, like wild-type proteins, still have strong hormone-dependent interactions with SsMAX2
[4]
  yeast two-hybrid, hormone-induced D14-MAX2 interaction: SL induced both SsD14a and SsD14b to interact with SsMAX2 in yeast
[5]
  yeast two-hybrid, hormone-induced D14-MAX2 interaction: like wild-type proteins, still have strong hormone-dependent interactions with SsMAX2
[6]
  yeast two-hybrid, hormone-induced D14-MAX2 interaction: AtD14R262P and OsD14ΔNR261P, like wild-type proteins, still have strong hormone-dependent interactions with SsMAX2
